Reference: publication PMC5131915, “Platinum(II) Iodido Complexes of 7-Azaindoles with Significant Antiproliferative Effects: An Old Story Revisited with Unexpected Outcomes” (PLoS ONE, 2016)
Read-outs that look alike come from different tables or passages of the source.

Assays:
HOS osteosarcoma cells = test: In vitro cytotoxicity testing (MTT assay), HOS; format: cell-based, human; conditions: for IC50: 24 h drug exposure, no recovery, MTT, read-out: IC50±SD, HOS
Experimental: (§1) A2780 ovarian carcinoma, A2780R cisplatin-resistant ovarian carcinoma, HOS osteosarcoma, G361 malignant melanoma, MCF7 breast carcinoma, A549 lung carcinoma, HeLa cervix carcinoma, 22Rv1 prostate carcinoma and Caco-2 colorectal carcinoma human cancer cell lines were purchased from the European Collection of Cell Cultures (ECACC), while the human non-cancerous hepatocytes (Hep) were supplied by Biopredic Intl. The cell lines were cultured, according to the suppliers`instructions, in RPMI-1640 medium supplemented with 10% of fetal calf serum, 1% of 2 mM glutamine, and 1% penicillin/streptomycin. All cell lines were grown as adherent monolayers at 37°C and 5% CO2 in a humidified atmosphere.
(§2) The cells were seeded to 96-well culture plates, pre-incubated in drug-free media at 37°C for 24 h and treated typically with the 0.01–50.0 μM solutions, prepared from the stock solutions by dilution with medium, for 24 h at 37°C. […] In parallel with compounds 1–8 and the reference drugs, the cells were also treated with vehicle (0.1% DMF in medium; negative control) and Triton X-100 (1%; positive control) to assess the minimal and maximal cell damage, respectively. The MTT assay was used to determine the cell viability; MTT = 3-(4,5-dimethylthiazol-2-yl)-2,5-diphenyltetrazolium bromide. A concentration of the formed dye was evaluated spectrophotometrically at 540 nm (TECAN, Schoeller Instruments LLC).
(§3) The data were expressed as the percentage of viability, where 100% and 0% represents the treatments with negative and positive controls, respectively. The data from the cancer cells were acquired from three independent experiments (conducted in triplicate) using cells from different passages. The resulting IC50 values (μM) were calculated from viability curves and the results are presented as arithmetic mean±SD.

[1] = tested on: G361 malignant melanoma cells; test: In vitro cytotoxicity testing (MTT assay), G361; format: cell-based, human; conditions: 24 h drug exposure, no recovery, read-out: IC50±SD, G361
Experimental: as §1, §2, §3

[2] = tested on: HeLa cervix carcinoma cells; test: In vitro cytotoxicity testing (MTT assay), HeLa; format: cell-based, human; conditions: 24 h drug exposure, no recovery, read-out: IC50±SD, HeLa
Experimental: as §1, §2, §3

[3] = tested on: A549 lung carcinoma cells; test: In vitro cytotoxicity testing (MTT assay), A549; format: cell-based, human; conditions: 24 h drug exposure, no recovery, read-out: IC50±SD, A549
Experimental: as §1, §2, §3

[4] = tested on: A2780R cisplatin-resistant ovarian carcinoma cells; test: In vitro cytotoxicity testing (MTT assay), A2780R; format: cell-based, human; conditions: for resistance factor (RF), IC50(A2780R)/IC50(A2780): 24 h IC50 values; for IC50: 24 h drug exposure, no recovery, MTT, read-out: IC50±SD, A2780R
Experimental: (§4) All cell lines were grown as adherent monolayers at 37°C and 5% CO2 in a humidified atmosphere.
(§5) The MTT assay was used to determine the cell viability; MTT = 3-(4,5-dimethylthiazol-2-yl)-2,5-diphenyltetrazolium bromide. A concentration of the formed dye was evaluated spectrophotometrically at 540 nm (TECAN, Schoeller Instruments LLC).
as §3

[5] = tested on: human non-cancerous hepatocytes (Hep); test: In vitro cytotoxicity testing (MTT assay), hepatocytes; format: cell-based; conditions: 24 h drug exposure, no recovery
Experimental: as §1, §2, §3

[6] = tested on: Caco-2 colorectal carcinoma cells; test: In vitro cytotoxicity testing (MTT assay), Caco-2; format: cell-based, human; conditions: 24 h drug exposure, no recovery, MTT; read-out: IC50±SD, Caco-2
Experimental: as §4, §5, §3

[7] = tested on: A2780 ovarian carcinoma cells; test: In vitro cytotoxicity testing (MTT assay), A2780; format: cell-based, human
Experimental: as §4, §5, §3

[8] = Hydrophobicity studies (logP determination), octanol/water, ICP-MS; format: physicochemical; conditions: octanol/water (0.2 M KI)
Experimental: Complexes 4 and 6 (1 mmol) were ultrasonicated for 15 min in 10 mL of OSW, centrifuged and supernatants were collected. Aliquots (5 mL) of the obtained OSW solutions of complexes 4 and 6 were added to WSO (5 mL) and shaken for 2 h at ambient temperature. After that, the mixtures were centrifuged and aqueous layer was separated carefully. The platinum concentration was determined from OSW aliquots taken before ([Pt]OSWb) and after ([Pt]OSWa) partition by ICP-MS (ICP-MS spectrometer 7700x, Agilent) with the obtained values corrected for the adsorption effects. logP = log([Pt]WSO/[Pt]OSWa) equation was used for the partition coefficients calculation; [Pt]WSO = [Pt]OSWb−[Pt]OSWa. The experiments were conducted in triplicate.

A2780 cells = test: Cellular accumulation of platinum (ICP-MS); format: cell-based, human; conditions: 24 h treatment at IC50 concentration
Experimental: The A2780 cells were seeded in 6-well culture plates (1×10^6 cells per well) and incubated overnight (37°C and 5% CO2 in a humidified incubator). […] The cells were washed with PBS (2 × 2 mL) after 24 h treatment, harvested by trypsin treatment, collected and centrifuged in PBS. The supernatants were discarded after centrifugation and pellets were digested in 500 μL of nitric acid (3 min at 150°C) using a microwave system Monowave300 (Anton Paar). Solutions were diluted with 4.5 mL of water and the platinum content was determined by ICP-MS. The obtained values were corrected for adsorption effects. The experiments were conducted in triplicate and the results are presented as arithmetic mean±SD.

[9] = tested on: 22Rv1 prostate carcinoma cells; test: In vitro cytotoxicity testing (MTT assay), 22Rv1; format: cell-based, human; conditions: 24 h drug exposure, no recovery, read-out: IC50±SD, 22Rv1
Experimental: as §1, §2, §3

[10] = tested on: MCF7 breast carcinoma cells; test: In vitro cytotoxicity testing (MTT assay), MCF7; format: cell-based, human; conditions: 24 h drug exposure, no recovery, read-out: IC50±SD, MCF7
Experimental: as §1, §2, §3

[11] = tested on: L1210 mouse lymphocytic leukaemia cells; test: In vivo antitumour activity testing, L1210 lymphocytic leukaemia model; set-up: species or system mice; conditions: dose equimolar to cisplatin 2 mg/kg, i.p.
Experimental: The experimental animals used for in vivo antitumour testing were female DBA/2 SPF mice obtained from Charles Rivers Laboratories. The animals were housed in the Sealsafe NEXT—IVC Blue Line Housing System (Tecniplast, Italy) to ensure the best possible experimental conditions and eliminate the risk of possible intergroup cross-contamination, and kept in Plexiglas cages at constant temperature (22±1°C) and relative humidity of 55±5% for one-week adaptation period before the start of the experiment. All experimental procedures were performed according to the National Institute of Health (NIH) Guide for the Care and Use of Laboratory Animals. The protocol was approved by the Expert Committee on the Protection of Animals Against Cruelty at the University of Veterinary and Pharmaceutical Sciences Brno (Permit Number: 71/2013). The number of pharmacological interventions was limited to the necessary minimum in order to minimize the suffering of animals, which were observed regularly for the symptoms connected with the tumour progression. […] No animals had to be sacrificed due to the above mentioned criteria of humane treatment and no post-application deaths within the 2 hours after the application were observed during the experiment. […] The animal tissues for the ex vivo experiments and histological evaluations were taken post mortem, in case of surviving animals immediately after they were sacrificed by the lethal dose of carbon dioxide inhalation, immediately followed by the cervical dislocation.
The animals were monitored several times a day for the signs of tumour progression and distress development.

p53 = test: Ex vivo Western blot of tumour tissues, p53; format: in vivo, mice; conditions: pooled tumour samples
Experimental: (§6) Frozen tumour samples were homogenized by a bench blender IKA DI25 (IKA-Werke, Germany) in the presence of a lysis buffer [cOmplete Protease Inhibitor Cocktail (Roche, Germany), 50 mM Tris-HCl pH 7.5, 1 mM EGTA, 1 mM EDTA, 1 mM sodium orthovanadate, 50 mM sodium fluoride, 5 mM sodium pyrophosphate, 270 mM sucrose, 0.5% (v/v) Triton X-100]. Subsequently, the blended samples were centrifuged at 9.000 g at 4°C for 15 min. The supernatants were collected and the protein concentration was measured by the Brandford’s method using the Brandford reagent (Amresco, USA) according to the manufacturer’s manual. The measured samples were stored at -80°C for the following experiments.
(§7) The expression of caspase 3, MCL-1, p53, and β-actin as loading control were evaluated by Western blot analysis and immunodetection. Lysates were mixed with a denaturing loading dye [250 mM Tris-HCl pH 6.8, 5% (v/v) β-mercaptoethanol, 10% (w/v) sodium dodecyl sulfate, 30% (v/v) glycerol, 0.04% (w/v) bromophenol blue], heated for 5 min at 70°C. To eliminate intra-species variability, and to obtain the same amount of proteins from all experimental groups, all samples from one group of animals were pooled together and loaded onto a 15% polyacrylamide denaturing gel. The final protein amount was 50 μg per well. After protein separation in the gel, they were transferred on the Immun-Blot polyvinylidene difluoride membrane 0.2 μm (Bio-Rad, USA). Then, the membrane was blocked by 5% (w/v) BSA in TBST [10 mM Tris-HCl pH 7.5, 150 mM NaCl, 0.1% (v/v) Tween-20]. […] HRP was detected by Clarity Western ECL Substrate (Bio-Rad, USA) using chemiluminescent documentation system Syngene PXi-4 (UK).

[12] = tested on: spleen, renal tissue and tumour tissues of L1210 leukaemia-bearing mice; test: Histological observations (light microscopy, semi-quantitative); conditions: relative scale 0 to 4
Description: Randomly selected paraffin block preparations were stained by standard hematoxylin and eosin stain for light microscopic evaluation. Due to high cellularity, the semi-quantitative method was used for the evaluation of necrosis in well-circumcised and diffuse tumour samples and PMN cells infiltration in normal tissues as an indirect sign of toxicity to healthy tissues. The evaluation of necrotic processes and infiltration by PMN cells was semi-quantitative, based on the percentage of necrotic areas and/or infiltrated area in the view-field of at least three different samples.

[13] = tested on: caspase 3 (Cas-3), active form p17; test: Ex vivo Western blot of tumour tissues, cleaved caspase 3; format: in vivo, mice; conditions: pooled tumour samples
Experimental: The expression of caspase 3, MCL-1, p53, and β-actin as loading control were evaluated by Western blot analysis and immunodetection. Lysates were mixed with a denaturing loading dye [250 mM Tris-HCl pH 6.8, 5% (v/v) β-mercaptoethanol, 10% (w/v) sodium dodecyl sulfate, 30% (v/v) glycerol, 0.04% (w/v) bromophenol blue], heated for 5 min at 70°C. […] The final protein amount was 50 μg per well. After protein separation in the gel, they were transferred on the Immun-Blot polyvinylidene difluoride membrane 0.2 μm (Bio-Rad, USA). Then, the membrane was blocked by 5% (w/v) BSA in TBST [10 mM Tris-HCl pH 7.5, 150 mM NaCl, 0.1% (v/v) Tween-20]. […] HRP was detected by Clarity Western ECL Substrate (Bio-Rad, USA) using chemiluminescent documentation system Syngene PXi-4 (UK).

MCL-1L (37 kDa) = test: Ex vivo Western blot of tumour tissues, MCL-1L; format: in vivo, mice; conditions: pooled tumour samples
Experimental: as §6, §7

[14] = tested on: cisplatin-resistant HCT116 colon cancer cell line; set-up: method as in PMID 26226326; conditions: cited from earlier work
[15] = tested on: cisplatin-sensitive HCT116 colon cancer cell line; set-up: method as in PMID 26226326; conditions: cited from earlier work
[16] = tested on: A2780, T-47D human breast carcinoma and WiDr human colon carcinoma cell lines; set-up: method as in PMID 24900222; conditions: cited from earlier work
[17] = tested on: HT29 colon carcinoma cells; conditions: cited from earlier work
[18] = tested on: HCT116 colon carcinoma cells; conditions: cited from earlier work
HeLa cells = tested on: HeLa cells; set-up: method as in PMID 22225466; conditions: cited from earlier work
[19] = 24 h drug exposure, no recovery, MTT, read-out: IC50±SD, A2780

| Structure (SMILES) | IC50 (HOS osteosarcoma cells) | IC50 [1] | IC50 [2] | IC50 [3] | resistance factor (RF), IC50(A2780R)/IC50(A2780) [4] | IC50 [4] | IC50 [5] | IC50 [6] | IC50 [7, 19] | IC50 [9] | IC50 [10] | also measured |
| --- | --- | --- | --- | --- | --- | --- | --- | --- | --- | --- | --- | --- |
| Ic1c[nH]c2c1ccc[n+]2[Pt-2]([I])([I])[n+]1cccc2c(I)c[nH]c21 [Complex 4, cis-[PtI2(3Iaza)2]] | 2.8 ± 1 µM | 1.6 ± 0.7 µM | 6.2 ± 0.7 µM | 9.8 ± 1.3 µM | 1.13 | 2.6 ± 0.8 µM | 11.8 µM | 3.3 ± 0.1 µM | 2.3 ± 1.1 µM | 4.5 ± 1.6 µM | 1.8 ± 0.3 µM | logP [8]: 0.41; cellular accumulation (A2780 cells): 354±63 pmol Pt/10^6 A2780 cells |
| Clc1ccnc2[nH]ccc12.Clc1ccnc2[nH]ccc12.[I][Pt][I] [Complex 5, cis-[Pt(4Claza)2I2]] | 0.5 ± 0.2 µM | 3.2 ± 0.2 µM | 3.8 ± 0.3 µM | 4.7 ± 0.3 µM | 1.10 | 3.4 ± 0.2 µM | 4.2 µM | 2.4 ± 0.7 µM | 3.1 ± 0.1 µM | 4.2 ± 0.1 µM | 1.5 ± 0.5 µM | tolerability / signs of toxicity (e.g. weight loss) [11]: well-tolerated; percentage of mean survival time T/C [11]: 100%; mean survival time ± SD ([11]; 10 days after implantation, control 17.4±1.6 days): 17.3 ± 2.3 days; times more potent than cisplatin (HOS osteosarcoma cells; HOS cell line): ≤ 47 times; p53 level in tumour tissue (p53): did not affect; Areas of necrosis in tumour tissues [12]: 2 (2 = up to 50%); Infiltration of renal tissues (PMN cells) [12]: 1 (1 = up to 25%); Infiltration of spleen (PMN cells) [12]: 3 (3 = up to 75%); IC50 ([7]; 6 h exposure, read-out: IC50, A2780, time-dependent cytotoxicity): 11 ± 2.9 µM; level of active form of Cas-3 in tumour tissue [13]: has not been observed; MCL-1L level in tumour tissue (MCL-1L (37 kDa)): negligible effect |
| N.N.[I-].[I-].[Pt+2] [cis-[PtI2(NH3)2]] |  |  |  |  |  |  |  |  |  |  |  | IC50 [14]: 4.2 µM; IC50 [15]: 13.4 µM |
| CC(C)N.CC(C)N.[I][Pt][I] [cis-[PtI2(ipam)2]] |  |  |  |  |  |  |  |  |  |  |  | times more potent than cisplatin [16]: ≤ 11 times |
| O=C1[O][Pt]2([NH][C@@H]3CCCC[C@H]3[NH]2)[O]C1=O [oxaliplatin] |  |  |  |  |  |  |  |  |  |  |  | IC50 [17]: 0.7 µM; IC50 [18]: 0.3 µM |
| C[NH+](C)[Pt-2]([I])([I])[NH+](C)C [trans-[PtI2(L1)2]] |  |  |  |  |  |  |  |  |  |  |  | factor by which activity of cisplatin is exceeded (HeLa cells): ~6 |
